System: human Z138 mantle cell lymphoma cell line
Test: Tumor growth inhibition study in vivo, Z138 xenograft
Parameters: species or system SCID beige mice
Settings: for Antitumor activity / tumor growth compared to control group (words): 3 mg/kg i.p., study days 19-22, end of study day 33; for TGI (%): tumor growth inhibition vs. control group on day 33 after tumor cell inoculation, antibodies 1 mg/kg once weekly
[1] = i.p., bendamustine 3 mg/kg days 19-22

Row | Molecule | Antitumor activity / tumor growth compared to control group (words) | Antitumor activity / tumor growth compared to control group (words) (listed as bendamustine) | TGI (%) [1] | Parametric TCR based on sAUC (vs. vehicle group 1, study end day 33, i.p., antibodies 1 mg/kg once weekly (days 19, 26), bendamustine 3 mg/kg days 19-22)
1 | Cn1c(CCCC(=O)O)nc2cc(N(CCCl)CCCl)ccc21 [Bendamustine, 4-[5-[Bis(2-chloroethyl)amino]-1-methylbenzimidazol-2-yl]buta-noic acid] | comparable tumor growth as the control group | did not show any antitumor activity | 0% | 0.9
2 | B-HH6-B-KV1 GE: Afucosylated glyco-engineered humanized B-Ly1 type II anti-CD20 IgG1 antibody; VH SEQ ID NO:7 (B-HH6), VL SEQ ID No. 20 (B-KV1) |  |  | 47% | 
